In patent publication US20240000860A1, “METHODS FOR TREATING AUTISM SPECTRUM DISORDER” (priority 2020, published 2024):
Marks after values point to notes of the source that are not given here.

Columns and labels:
Type in all cases: in vivo
[1] = tested on: gene pathways in frontal cortex of CNTNAP2 mice; assay: RNA-sequencing and gene set enrichment analysis of frontal cortex; conditions: for normalized enrichment score: 5D vs normal chow
Procedure: In this example, to further investigate 5D's effect on neuronal function, RNA-sequencing was performed on the frontal cortex region of CNTNAP2 mice supplemented with 5D after 3 weeks.
Bar size depicts enrichment score normalized by gene set size, and color depicts fdr corrected p-value as determined by gene set enrichment analysis. […] (CNTNAP-NormC: n=5, CNTNAP-5D: n=9)

[2] = tested on: gene pathways in mouse brain (prefrontal cortex); assay: RNA sequencing of prefrontal cortex after supplemented metabolites: differentially expressed gene pathways; conditions: two weeks supplementation
Procedure: Transcriptomics data (RNA sequencing) was collected from the prefrontal cortex of 12-week old mice after consuming a low, medium, or high dosage of supplemented metabolites for two weeks. RNA sequencing used brain tissue to evaluate possible correlation between changes in relative changes in gene transcription with changes in behavior. The number of differentially expressed gene pathways at significance level of 0.05, 0.1, and 0.15 was determined (Table 1).

[3] = tested on: CNTNAP2 mice; assay: Gut microbiota taxonomic composition in colons with 5D supplementation
Procedure: Genera under the family Lachnospiraceae and Ruminococcaceae were consistently seen increased in CNTNAP2 mice and decreased with 5D supplementation.
P-values were determined using permanova and beta-dispersion tests. FIGS. 29B-29N show results of differential abundance test of ASVs aggregated at the genus level. […] P-values were determined using Wilcoxon rank sum test, values were reported as fold change of median of C57BL/6 controls.

[4] = tested on: mice; assay: Three-chamber sociability test; conditions: for Sociability: behavioral assay summary, Yes/No
Procedure: (§1) Mice were fed 80% of their total food as non-supplemented food (chow) for 4 days. For the next two weeks, mice were fed 80% of their total food as non-supplemented food and the remaining 20% was supplemented with selected metabolites(s). Mice were fed on food supplemented with various metabolites including 5-dodecacenoate (5D), glycodeoxycholate (GDC), ursodeoxycholate (UDC), or a control food lacking a supplement (CTL). Mouse behavior was tested using an elevated plus maze (FIG. 13), a three-chamber sociability test, and tracking wheel usage. During testing, mice were fed 80% of their total food as non-supplemented food and the remaining 20% was supplemented with the selected metabolites(s).
Additionally, the effect of supplementation with the metabolites on sociability was measured with a three-chamber sociability test (FIG. 21). This chamber tested for responses to social novelty.

[5] = tested on: mice; assay: Habituation over three days (distance traveled, time in center, ambulatory time); conditions: for Habituation exploration / Habituation time in center: behavioral assay summary, Yes/No; for habituation: total distance traveled and exploratory activity: over three days
Procedure: as §1
Habituation over was tested with the […] (FIG. 16). […] Significance was tested with an ANOVA test.
Habituation was measured by tracking the amount of time spent in the center of the chamber (FIG. 18).
Active time was also measured as total ambulatory time and center ambulatory time.

[6] = tested on: mice; assay: Elevated plus maze (anxiogenic behavior); conditions: for EPM closed arms / EPM open arms: behavioral assay summary, Yes/No; for active time in the closed arms of the maze / time spent in closed arms of elevated plus maze: vs control mice
Procedure: as §1
Anxiogenic behavior was tested by tracking time spent in closed arms of an elevated plus maze. Control mice were fed food lacking a supplement.

[7] = tested on: CNTNAP2 mice; assay: Lipidomic profiles and triglyceride levels in brain, plasma, liver and stool
Text: Triglycerides were identified as influential in every tissue measured. Lipids were first aggregated into categories (e.g. triglycerides, phosphocholines), then PCA ordination was applied. […] P-values determined from permanova test between treatments are shown as annotations.
Intensities were normalized using CUDA calibration and were reported as log fold change of median of C57BL/6 wild type controls. P-values were derived from Wilcox rank sum test.

[8] = tested on: mice; assay: Mouse wheel distance traveled; conditions: for night-time activity: after administering metabolites
Procedure: as §1
Lastly, mice fed with food supplemented with various metabolites were given a mouse wheel and distance traveled was tracked.

[9] = frontal cortex of CNTNAP2 mice after 3 weeks
[10] = significance level 0.05, 12-week old mice
[11] = significance level 0.1, 12-week old mice
[12] = significance level 0.15, 12-week old mice
[13] = treatment average vs Control Average
[14] = treatment average vs 5D Average

CCCCCCC=CCCCC(=O)O [5D, 5-dodecenoate]
normalized enrichment score ([1]; R-MMU-112314 Neurotransmitter receptors and postsynaptic signal transmission): −2.033
normalized enrichment score ([1]; R-MMU-112315 Transmission across Chemical Synapses): −1.846
normalized enrichment score ([1]; R-MMU-112316 Neuronal System): −2.025
normalized enrichment score ([1]; R-MMU-114604 GPVI-mediated activation cascade): 1.832
normalized enrichment score ([1]; R-MMU-181431 Acetylcholine binding and downstream events): −2.154
normalized enrichment score ([1]; R-MMU-195721 Signaling by WNT): −1.416
normalized enrichment score ([1]; R-MMU-198933 Immunoregulatory interactions between a Lymphoid and a non-Lymphoid cell): 1.706
normalized enrichment score ([1]; R-MMU-202733 Cell surface interactions at the vascular wall): 1.736
normalized enrichment score ([1]; R-MMU-216083 Integrin cell surface interactions): 1.99
normalized enrichment score ([1]; R-MMU-397014 Muscle contraction): −1.646
normalized enrichment score ([1]; R-MMU-418360 Platelet calcium homeostasis): −2.258
normalized enrichment score ([1]; R-MMU-419037 NCAM1 interactions): 1.823
normalized enrichment score ([1]; R-MMU-622323 Presynaptic nicotinic acetylcholine receptors): −2.107
normalized enrichment score ([1]; R-MMU-622327 Postsynaptic nicotinic acetylcholine receptors): −2.154
normalized enrichment score ([1]; R-MMU-629594 Highly calcium permeable postsynaptic nicotinic acetylcholine receptors): −2.095
normalized enrichment score ([1]; R-MMU-983168 Antigen processing: Ubiquitination and Proteasome degradation): −1.55
normalized enrichment score ([1]; R-MMU-1296071 Potassium Channels): −1.854
normalized enrichment score ([1]; R-MMU-1296072 Voltage gated Potassium channels): −1.912
normalized enrichment score ([1]; R-MMU-1442490 Collagen degradation): 2.005
normalized enrichment score ([1]; R-MMU-1474228 Degradation of the extracellular matrix): 1.968
normalized enrichment score ([1]; R-MMU-1474244 Extracellular matrix organization): 1.79
normalized enrichment score ([1]; R-MMU-1474290 Collagen formation): 2.185
normalized enrichment score ([1]; R-MMU-1650814 Collagen biosynthesis and modifying enzymes): 2.145
normalized enrichment score ([1]; R-MMU-2022090 Assembly of collagen fibrils and other multimeric structures): 2.261
normalized enrichment score ([1]; R-MMU-2022857 Keratan sulfate degradation): 1.893
normalized enrichment score ([1]; R-MMU-3928664 Ephrin signaling): −2.03
normalized enrichment score ([1]; R-MMU-5576891 Cardiac conduction): −1.669
normalized enrichment score ([1]; R-MMU-5668599 RHO GTPases Activate NADPH Oxidases): 1.842
normalized enrichment score ([1]; R-MMU-5686938 Regulation of TLR by endogenous ligand): 1.963
normalized enrichment score ([1]; R-MMU-6794361 Neurexins and neuroligins): −1.973
normalized enrichment score ([1]; R-MMU-6794362 Protein-protein interactions at synapses): −2.181
normalized enrichment score ([1]; R-MMU-6798695 Neutrophil degranulation): 1.588
normalized enrichment score ([1]; R-MMU-6803157 Antimicrobial peptides): 1.959
normalized enrichment score ([1]; R-MMU-6811436 COPI-independent Golgi-to-ER retrograde traffic): −1.957
normalized enrichment score ([1]; R-MMU-8878159 Transcriptional regulation by RUNX3): −1.748
normalized enrichment score ([1]; R-MMU-8948216 Collagen chain trimerization): 2.098
normalized enrichment score ([1]; R-MMU-8951664 Neddylation): −1.571
expression of collagen, extracellular matrix, cell structure and interaction pathways [1, 9]: increased the expression of pathways such as collagen formation
expression of innate immunity pathways [1, 9]: increased expression of pathways that relate to innate immunity
expression of synapse-dependent pathways [1, 9]: decreased expression of synapse-dependent pathways
genes significantly modulated (p<0.05) [1, 9]: 1438
Differentially Expressed Gene Pathways in Mouse Brain [2, 10]: 0
Differentially Expressed Gene Pathways in Mouse Brain [2, 11]: 216
Differentially Expressed Gene Pathways in Mouse Brain [2, 12]: 235
Romboutsia ilealis levels ([3]; CNTNAP2 mice): found at very high levels in some CNTNAP2 mice
ten genera of bacteria increased in CNTNAP2 mice compared to C57BL/6 ([3]; Wilcoxon rank sum test): significantly decreased
taxonomic composition of gut microbiota ([3]; oral supplementation, CNTNAP2 mice vs C57BL/6 wild types): shifts the taxonomic composition of CNTNAP2 mice
Sociability [4]: Yes
time spent with a new mouse, compared among treatments ([4]; mouse, in vivo): spent the most time with a new mouse
time spent with novel mouse ('new') vs known mouse ('old') ([4]; response to social novelty): spent more time with a novel mouse
Habituation exploration [5]: Yes
Habituation time in center [5]: Yes
habituation: total distance traveled and exploratory activity [5]: lower total distance traveled and exploratory activity over three days
center ambulatory time ([5]; over time): increase in center ambulatory time over time
time spent in the center of the chamber ([5]; over time): increase in time spent in the center of the chamber over time
EPM closed arms [6]: Yes
EPM open arms [6]: No
active time in the closed arms of the maze [6]: lower active time in the closed arms of the maze than control mice
time spent in closed arms of elevated plus maze [6]: spent less time in the closed arms of the maze
lipid profiles in brain and stool [7]: tended to shift brain and stool profiles, though this shift was not statistically significant
lipid profiles in plasma and liver [7]: significantly shift CNTNAP2 mouse lipid profiles in plasma and liver
triglyceride levels in brain, liver, plasma and stool ([7]; dietary supplementation): decreased the levels significantly in each of the tissues
night-time activity [8]: night-time activity increased
Adjusted p value, comparison of average distance traveled [8, 13]: 0.01466*

C[C@H](CCC(=O)NCC(=O)O)[C@H]1CC[C@H]2[C@@H]3CC[C@@H]4C[C@H](O)CC[C@]4(C)[C@H]3C[C@H](O)[C@]12C [GDC, glycodeoxycholate]
Differentially Expressed Gene Pathways in Mouse Brain [2, 10]: 153
Differentially Expressed Gene Pathways in Mouse Brain [2, 11]: 277
Differentially Expressed Gene Pathways in Mouse Brain [2, 12]: 291
Sociability [4]: No
Habituation exploration [5]: Yes
Habituation time in center [5]: No
habituation: total distance traveled and exploratory activity [5]: lower total distance traveled and exploratory activity over three days
EPM closed arms [6]: No
EPM open arms [6]: No
time spent in closed arms of elevated plus maze [6]: did not spend significantly more time in closed arms than control mice
night-time activity [8]: night-time activity increased
Adjusted p value, comparison of average distance traveled [8, 14]: 0.2762
Adjusted p value, comparison of average distance traveled [8, 13]: 0.0000114*

N[C@@H](CCC(=O)O)C(=O)O [Glutamate, glutamate]
Differentially Expressed Gene Pathways in Mouse Brain [2, 10]: 0
Differentially Expressed Gene Pathways in Mouse Brain [2, 11]: 0
Differentially Expressed Gene Pathways in Mouse Brain [2, 12]: 107

CC(=O)N[C@@H](CCC(=O)O)C(=O)O [N-acetyl-L-glutamate]
Differentially Expressed Gene Pathways in Mouse Brain [2, 10]: 82
Differentially Expressed Gene Pathways in Mouse Brain [2, 11]: 145
Differentially Expressed Gene Pathways in Mouse Brain [2, 12]: 177

C[C@H](CCC(=O)O)[C@H]1CC[C@H]2[C@@H]3[C@@H](O)C[C@@H]4C[C@H](O)CC[C@]4(C)[C@H]3CC[C@]12C [UDC, ursodeoxycholate]
Differentially Expressed Gene Pathways in Mouse Brain [2, 10]: 0
Differentially Expressed Gene Pathways in Mouse Brain [2, 11]: 0
Differentially Expressed Gene Pathways in Mouse Brain [2, 12]: 104
Sociability [4]: No
Habituation exploration [5]: No
Habituation time in center [5]: No
habituation: total distance traveled and exploratory activity [5]: did not decrease the total distance traveled on day three compared to day two
EPM closed arms [6]: Yes
EPM open arms [6]: No
active time in the closed arms of the maze [6]: lower active time in the closed arms of the maze than control mice
time spent in closed arms of elevated plus maze [6]: spent less time in the closed arms of the maze
night-time activity [8]: night-time activity increased
Adjusted p value, comparison of average distance traveled [8, 14]: 0.00000000
Adjusted p value, comparison of average distance traveled [8, 13]: 0.00000000*
Adjusted p value, comparison of average distance traveled ([8]; treatment average vs GDC Average): 0.0000141
